Source: article PMC2919388, “A Screening Pipeline for Antiparasitic Agents Targeting Cryptosporidium Inosine Monophosphate Dehydrogenase” (PLoS Neglected Tropical Diseases, 2010)
Like-named read-outs stand apart in the source and are kept apart here.

Assays:
HCT-8 cells = experiment: Fluorescent HCT-8 host cell growth assay; format: cell-based, human; conditions: for activity at 25 µM: Homo sapiens, HCT-8, compound at 25 μM, relative to DMSO alone
Method: HCT-8 cells were transfected with plasmid pmaxGFP (Amaxa) using Lipofectamine (Invitrogen). Fluorescent lines were then selected and cloned using cell sorting. Confluent monolayers of pmaxGFP expressing cells were harvested from T75 flasks and passed through a 40 µm cell strainer. Cells were seeded at 4000 cells per well into black, optical quality, thin bottom, 96-well plates. All test compounds were diluted in DMSO as described. The fluorescence was read daily with a SpectraMax M22/M2e (Molecular Devices) plate reader (Ex 485, Em 530) for 6–7 days. Percent inhibition was calculated on a day within the exponential phase of growth.

C. parvum [1] = experiment: High-content imaging C. parvum growth assay (FITC-VVL); format: cell-based, Cryptosporidium parvum; conditions: for EC50: Cryptosporidium parvum, HCT-8, 48 h, growth in HCT-8 cells, 48 hours
Method: The human ileocecal adenocarcinoma epithelial cell line, HCT-8, was used to support C. parvum infection in vitro. HCT-8 cells were maintained in RPMI-1640 (Hyclone) supplemented with 10% FBS, 1 mM sodium pyruvate, 50 U/m penicillin, 50 µg/ml streptomycin, and amphotericin B. Cryptosporidium parvum oocysts were a kind gift from either Dr. Mead (Emory University) or Dr. Kissinger (University of Georgia). HCT-8 cells (2×10^5) were seeded into black, optical quality, thin bottom, 96-well plates (DB Falcon) to achieve a 70% confluent monolayer on the day of infection. To facilitate oocyst excystation, a procedure described by Gut et al., was followed. Briefly, oocysts were washed twice with 1 ml of PBS (pH 7.2), incubated for 10 minutes at 37°C in 1 ml 10 mM of HCl and then incubated for a further 10 minutes in 0.2 ml of 200 µM sodium taurocholate at 15°C [40]. This oocyst suspension was diluted directly with DMEM (Hyclone) supplemented with 2% FBS, 50 U/ml penicillin, 50 µg/ml streptomycin, amphotericin B and 0.2 mM L-glutamine (infection medium) to inoculate host cell monolayers at 5×10^5 oocysts per well. Host cell monolayers were incubated for 3 hours at 37°C prior to removal of unexcysted oocysts by aspiration and PBS wash. Infection medium was then added to the monolayers and infection was allowed to progress for 48 hours.
The VVL IFA was performed in a 96-well format. Following 48 hours of culture C. parvum infected HCT-8 cells were washed with PBS and fixed with 0.2 ml/well of 3% paraformaldehyde/PBS, permeabilized with 0.25% Triton-X-100/PBS and blocked with 4% BSA/PBS. 0.1 ml of fluorescein (FITC)-conjugated VVL (Vector Labs 0.5 µg/ml) in 1% BSA/PBS was applied to wells and incubated for 45 minutes. The plates were washed twice with 200 µl/well of PBS. In the first wash DAPI was included at 0.1 µg/ml. Finally 200 µl/well of PBS was added to the plates prior to storage at 4°C protected from light.
Confocal images were acquired using a BD Biosciences Bioimager P435. The instrument was programmed to automatically change position and focus, capture montage images of 9–16, 40× fields per well, and then compress and save the image files. Object finding algorithms were developed for the recognition of FITC-VVL labelled C. parvum parasites and DAPI labelled host cell nuclei using Attovision Software (BD Biosciences). Briefly, to identify FITC-VVL labelled parasites, the object finding algorithm included, a flat field correction, a polygon shape setting, a 3×3 rolling ball filter, manual pixel intensity thresholding (100 min – 4095 max), and minimum and maximum object size cut-offs of 5 pixels and 350 pixels respectively. The algorithm optimised for finding DAPI labelled host cell nuclei also included flat field correction and polygon shape setting, but applied a 25×25 rolling ball filter which is more suitable for larger objects, an automated pixel intensity threshold, minimum and maximum object size cut-offs of 200 pixels and 4000 pixels respectively, and a watershed step with an erosion factor of 8 to aid in the separation of adjacent densely packed nuclei. Note that the intensity and area size cut off exclude detection of the much smaller parasite nuclei (the human genome is three hundred times larger than the C. parvum genome).
The object finding analysis steps described above recorded the number and area of objects per montage image. The output files along with a plate map file were then passed to an automated analysis pipeline (Pipeline Pilot Software, Accelrys) to calculate the mean number of parasites, the ratio of parasite number to host cell nuclei number, the mean area of parasites and host cell nuclei by well, and the percentage growth by treatment as compared to the no drug control. These analyses were exported in graphical format for each plate and the numerical values tabulated in html format. […]

C. parvum [2] = conditions: several previous studies; read-out: reported EC50 values for C. parvum growth; cited from earlier work
wild-type T. gondii = experiment: Fluorescent T. gondii growth assay, wild-type strain; format: cell-based, Toxoplasma gondii; conditions: Toxoplasma gondii, wild-type T. gondii, no added xanthine; read-out: T. gondii model EC50 WT
Text: (§1) Wild-type T. gondii and T. gondii-ΔHXGPRT parasites were transfected with plasmid ptubYFPYFsagCAT [37] which drives constitutive cytoplasmic expression of two copies of the yellow fluorescent protein. Similarly, plasmid pCTR2T [38] was transfected into T. gondii-CpIMPDH resulting in constitutive cytoplasmic expression of a tandem of the tomato variant of the red fluorescent protein [39]. Fluorescent parasites were selected and cloned by cell sorting using a MoFlo Legacy instrument (Beckman Coulter, Inc). Growth of fluorescent clones was monitored in 96 well plates as previously described. Briefly, fluorescence was read daily with a SpectraMax M22/M2e (Molecular Devices) plate reader (Ex 485, Em 530) for 6–7 days. For each of the three fluorescent T. gondii clones percent growth inhibition was calculated on a day within the exponential phase of growth for the purpose of determining an IC50 for each compound.
(§2) Supplementary file pntd.0000794.s002.tif: Figure S2 Obtaining an EC50 value for T. gondii growth. Fluorescent T. gondii parasites are seeded into 96-well plates and spiked with test compound. Fluorescence is measured daily with a SpectraMax M22/M2e (Molecular Devices) plate reader for 6–7 days. The fluorescence readings on a day during the exponential phase of the growth curve, for example day 4 in A, are used to calculated percent growth inhibition. These values are fitted using the 4 parameter model y = D+(A–D)/(1+(x/C)^B) where D is the minimum value, A is the maximum value, C is the EC50 and B is the Hill coefficient, using the SoftMax Pro v5 software, as illustrated in B. The absolute EC50 is recorded at the x intercept where y = 50. (0.33 MB TIF) Click here for additional data file.

T. gondii-ΔHXGPRT = experiment: Fluorescent T. gondii growth assay, ΔHXGPRT strain; format: cell-based; conditions: Toxoplasma gondii, read-out: T. gondii model EC50 ΔHXGPRT, T. gondii-ΔHXGPRT
Text: as §1, §2

T. gondii-CpIMPDH = experiment: Fluorescent T. gondii growth assay, CpIMPDH reporter strain; format: cell-based, Toxoplasma gondii; conditions: for Selectivity = EC50(T. gondii-wild-type)/EC50(T. gondii-CpIMPDH): Figure 5 Sel; for EC50: Toxoplasma gondii, read-out: T. gondii model EC50 CpIMPDH, T. gondii-CpIMPDH, absence of xanthine
Text: as §1
To facilitate screening of antiparasitic activity, we constructed a T. gondii reporter parasite that mirrors the Cryptosporidium purine metabolism. Figure 1 summarizes the main differences between the two parasites in this pathway. We started with a T. gondii knockout mutant that, like C. parvum, lacks the ability to salvage xanthine and guanine via HXGPRT (T. gondii-ΔHXGPRT [41]) and introduced the CpIMPDH gene under the control of a T. gondii promoter. Next the native T. gondii IMPDH gene was disrupted by replacing the entire coding sequence with a chloramphenicol acetyl transferase cassette using a new cosmid-based gene targeting approach. […] This manipulation created strain T. gondii-CpIMPDH-ΔHXGPRT-ΔTgIMPDH. Lastly, we introduced a fluorescent protein cassette and isolated stable transgenic parasites by cell sorting. The resulting strain is referred to as T. gondii-CpIMPDH. […] We similarly engineered fluorescent versions of wild-type T. gondii and T. gondii-ΔHXGPRT to serve as controls.
as §2

CpIMPDH [3] = molecular target: T1, CpIMPDH (Cryptosporidium parvum, UniProt Q8T6T2); conditions: read-out: CpIMPDH Inhibition IC50 + BSA; cited from earlier work
CpIMPDH [4] = molecular target: T1, CpIMPDH; experiment: CpIMPDH enzyme inhibition (without or with BSA); format: biochemical; conditions: compound not previously described
Method: We wondered if some compounds might be binding nonspecifically to other proteins. To test this hypothesis, CpIMPDH inhibition was also evaluated in the presence of BSA [22]. […] Selectivity in the T. gondii model also correlates well with the potency of enzyme inhibition in the presence of BSA (Figure 7C; r = −0.92, p<0.0001). These observations indicate that the IC50 value in the presence of BSA is a useful proxy for antiparasitic activity modelled by T. gondii-CpIMPDH proliferation.

T1 sequence (Q8T6T2 whole entry): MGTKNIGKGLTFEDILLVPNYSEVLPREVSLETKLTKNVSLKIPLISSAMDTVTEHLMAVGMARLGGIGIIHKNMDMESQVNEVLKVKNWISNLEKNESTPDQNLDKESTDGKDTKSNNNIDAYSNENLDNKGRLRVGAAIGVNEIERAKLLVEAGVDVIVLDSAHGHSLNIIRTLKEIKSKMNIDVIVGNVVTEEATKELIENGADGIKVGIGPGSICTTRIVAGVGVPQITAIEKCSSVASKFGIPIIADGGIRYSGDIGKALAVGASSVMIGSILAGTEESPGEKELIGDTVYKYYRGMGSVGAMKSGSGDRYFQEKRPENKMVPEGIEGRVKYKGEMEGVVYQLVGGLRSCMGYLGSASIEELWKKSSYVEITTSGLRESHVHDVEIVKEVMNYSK

Compound	effect on host cell (HCT-8) growth (HCT-8 cells; in words)	EC50 (C. parvum [1]) [µM]	mean parasite area (C. parvum [1]; relative to DMSO alone)	parasites observed relative to the no drug control (C. parvum [1]; very high concentrations of paromomycin) [%]	EC50 (C. parvum [2]) [µM]	EC50 (wild-type T. gondii) [µM]	EC50 (T. gondii-ΔHXGPRT) [µM]	selectivity for the T. gondii-CpIMPDH parasite over wild-type T. gondii (T. gondii-CpIMPDH) [fold]	Selectivity = EC50(T. gondii-wild-type)/EC50(T. gondii-CpIMPDH) (T. gondii-CpIMPDH)	EC50 (T. gondii-CpIMPDH) [µM]	activity at 25 µM (HCT-8 cells) [%]	IC50 (CpIMPDH [3]) [µM]	IC50 (CpIMPDH [4]; in the presence of BSA) [µM]	IC50 (CpIMPDH [4]; without BSA) [µM]
NC[C@@H]1O[C@H](O[C@H]2[C@@H](O)[C@H](O[C@@H]3[C@@H](O)[C@H](N)C[C@H](N)[C@H]3O[C@H]3O[C@H](CO)[C@@H](O)[C@H](O)[C@H]3N)O[C@@H]2CO)[C@H](N)[C@@H](O)[C@@H]1O [paromomycin, reference compound]	negligible effects on the growth of these cells	97	significantly reduce the mean parasite area in a dose responsive manner	~30	65 to 130	–	–	–	–	–	–	–	–	–
C[C@@H](Oc1cccc2c1ccc[n+]2[O-])c1cn(-c2ccc(Cl)cc2)nn1 [Compound A109]	–	12 to 25	–	–	–	> 25	> 25	≥ 36	> 86	0.3 ± 0.1	89 ± 16	0.05 ± 0.01	–	–
CC(Oc1cccc2ncccc12)c1cn(-c2ccc(Cl)cc2)nn1 (stereo not shown) [Compound A99]	–	12 to 25	–	–	–	4.7	3.4	≥ 17	> 17	< 0.2	58 ± 8	–	0.076 ± 0.009	0.031 ± 0.001
